# Assay results taken from paper PMC5218480 (PLoS ONE, 2017).
# System: MV-4-11 cells
# Experiment: Gene expression microarray analysis (Affymetrix PrimeView) and GSEA
# Type: cell-based, human
# Parameters: RFU PODN (11730768_x_at) / Fold change /veh PODN (11730768_x_at) / RFU LINC00158 (11744669_a_at) / Fold change /veh LINC00158 (11744669_a_at) / RFU DUSP10 (11751237_a_at) / Fold change /veh DUSP10 (11751237_a_at) / RFU ID3 (11757404_x_at) / Fold change /veh ID3 (11757404_x_at) / RFU PLEKHG5 (11737974_s_at) / Fold change /veh PLEKHG5 (11737974_s_at) / RFU LRRC4B (11730491_at) / Fold change /veh LRRC4B (11730491_at) / RFU GIMAP4 (11747438_a_at) / Fold change /veh GIMAP4 (11747438_a_at) / RFU KRT8 (11758183_x_at) / Fold change /veh KRT8 (11758183_x_at) / RFU CNN1 (11734310_a_at) / Fold change /veh CNN1 (11734310_a_at) / RFU VPS37D (11726825_at) / Fold change /veh VPS37D (11726825_at) / RFU C10orf10 (11716522_x_at) / Fold change /veh C10orf10 (11716522_x_at) / RFU KIR2DL2 /// KIR2DL4 /// KIR2DL5A /// KIR2DL5B /// KIR2DS1 /// KIR2DS2 /// KIR2DS3 /// KIR2DS4 /// KIR3DL3 /// KIR3DL3 /// KIR3DS1 (11738374_at) / Fold change /veh KIR2DL2 /// KIR2DL4 /// KIR2DL5A /// KIR2DL5B /// KIR2DS1 /// KIR2DS2 /// KIR2DS3 /// KIR2DS4 /// KIR3DL3 /// KIR3DL3 /// KIR3DS1 (11738374_at) / RFU C1QL1 (11718748_at) / Fold change /veh C1QL1 (11718748_at) / RFU TMPRSS4 (11747572_a_at) / Fold change /veh TMPRSS4 (11747572_a_at) / RFU HAMP (11756126_x_at) / Fold change /veh HAMP (11756126_x_at) / RFU RNFT2 (11725882_a_at) / Fold change /veh RNFT2 (11725882_a_at) / RFU NR4A2 (11747474_a_at) / Fold change /veh NR4A2 (11747474_a_at) / RFU ABCC12 (11746883_a_at) / Fold change /veh ABCC12 (11746883_a_at) / RFU TMEM136 (11760407_x_at) / Fold change /veh TMEM136 (11760407_x_at) / RFU CLDN22 /// WWC2 (11732394_at) / Fold change /veh CLDN22 /// WWC2 (11732394_at) / RFU HLA-DPB1 (11760878_x_at) / Fold change /veh HLA-DPB1 (11760878_x_at) / RFU SPINT1 (11716480_a_at) / Fold change /veh SPINT1 (11716480_a_at) / RFU GAP43 (11754022_s_at) / Fold change /veh GAP43 (11754022_s_at) / RFU A4GNT (11735810_at) / Fold change /veh A4GNT (11735810_at) / RFU PRB3 (11715151_x_at) / Fold change /veh PRB3 (11715151_x_at) / RFU TUBB4B (11761932_at) / Fold change /veh TUBB4B (11761932_at) / RFU CAPN14 (11732068_a_at) / Fold change /veh CAPN14 (11732068_a_at) / RFU TMCC2 (11721928_a_at) / Fold change /veh TMCC2 (11721928_a_at) / RFU IRGQ (11745062_a_at) / Fold change /veh IRGQ (11745062_a_at) / RFU FAM174B (11720279_a_at) / Fold change /veh FAM174B (11720279_a_at) / RFU TMPRSS4 (11748680_a_at) / Fold change /veh TMPRSS4 (11748680_a_at) / RFU FAM212B (11763350_a_at) / Fold change /veh FAM212B (11763350_a_at) / RFU PLEKHG5 (11743358_a_at) / Fold change /veh PLEKHG5 (11743358_a_at) / RFU ZSCAN30 (11745921_a_at) / Fold change /veh ZSCAN30 (11745921_a_at) / RFU CMKLR1 (11741424_a_at) / Fold change /veh CMKLR1 (11741424_a_at) / RFU LOC101060620 /// MAPK8IP1 (11723275_at) / Fold change /veh LOC101060620 /// MAPK8IP1 (11723275_at) / RFU SPTSSB (11747773_x_at) / Fold change /veh SPTSSB (11747773_x_at) / RFU PRSS12 (11739890_at) / Fold change /veh PRSS12 (11739890_at) / RFU BIN1 (11741810_x_at) / Fold change /veh BIN1 (11741810_x_at) / RFU WNT11 (11732464_a_at) / Fold change /veh WNT11 (11732464_a_at) / RFU C10orf10 (11716521_a_at) / Fold change /veh C10orf10 (11716521_a_at) / RFU C5orf56 (11738089_at) / Fold change /veh C5orf56 (11738089_at) / RFU CYB561 (11721691_x_at) / Fold change /veh CYB561 (11721691_x_at) / RFU ANKRD19P (11752326_a_at) / Fold change /veh ANKRD19P (11752326_a_at) / RFU OR2T12 /// OR2T33 /// OR2T8 (11738714_s_at) / Fold change /veh OR2T12 /// OR2T33 /// OR2T8 (11738714_s_at) / RFU VCAN (11748164_a_at) / Fold change /veh VCAN (11748164_a_at) / RFU JSRP1 (11732532_at) / Fold change /veh JSRP1 (11732532_at) / RFU KRTAP10-11 (11738290_x_at) / Fold change /veh KRTAP10-11 (11738290_x_at) / RFU MYO3A (11730013_a_at) / Fold change /veh MYO3A (11730013_a_at) / RFU EBF3 (11725865_a_at) / Fold change /veh EBF3 (11725865_a_at) / RFU CAMK2N1 (11719241_x_at) / Fold change /veh CAMK2N1 (11719241_x_at) / RFU C5orf56 (11738088_a_at) / Fold change /veh C5orf56 (11738088_a_at) / RFU OLFML3 (11715873_a_at) / Fold change /veh OLFML3 (11715873_a_at) / RFU LOC100653217 /// NTM (11731650_a_at) / Fold change /veh LOC100653217 /// NTM (11731650_a_at) / RFU MAPK11 (11762145_a_at) / Fold change /veh MAPK11 (11762145_a_at) / RFU FIZ1 (11724087_x_at) / Fold change /veh FIZ1 (11724087_x_at) / RFU OASL (11726364_x_at) / Fold change /veh OASL (11726364_x_at) / RFU SOX15 (11748057_x_at) / Fold change /veh SOX15 (11748057_x_at) / RFU CD79A (11719716_a_at) / Fold change /veh CD79A (11719716_a_at) / RFU HIST1H1D (11736915_at) / Fold change /veh HIST1H1D (11736915_at) / RFU CASKIN2 (11723855_a_at) / Fold change /veh CASKIN2 (11723855_a_at) / RFU LOC730098 (11760151_x_at) / Fold change /veh LOC730098 (11760151_x_at) / RFU OR4N2 (11742367_at) / Fold change /veh OR4N2 (11742367_at) / RFU PRRT2 (11749266_a_at) / Fold change /veh PRRT2 (11749266_a_at) / RFU SNX32 (11753110_a_at) / Fold change /veh SNX32 (11753110_a_at) / RFU CDHR5 (11726645_a_at) / Fold change /veh CDHR5 (11726645_a_at) / RFU RCAN1 (11760418_a_at) / Fold change /veh RCAN1 (11760418_a_at) / RFU FAM167A (11723789_a_at) / Fold change /veh FAM167A (11723789_a_at) / RFU FAM26E (11764081_at) / Fold change /veh FAM26E (11764081_at) / RFU ISYNA1 (11749810_s_at) / Fold change /veh ISYNA1 (11749810_s_at) / RFU ACY1 (11761880_at) / Fold change /veh ACY1 (11761880_at) / RFU 11764098_at / Fold change /veh 11764098_at / RFU SAMD14 (11745864_x_at) / Fold change /veh SAMD14 (11745864_x_at) / RFU NPB (11741838_a_at) / Fold change /veh NPB (11741838_a_at) / RFU TMPRSS6 (11731388_a_at) / Fold change /veh TMPRSS6 (11731388_a_at) / RFU KRTAP10-2 (11738614_at) / Fold change /veh KRTAP10-2 (11738614_at) / RFU ARHGAP8 /// PRR5-ARHGAP8 (11727945_x_at) / Fold change /veh ARHGAP8 /// PRR5-ARHGAP8 (11727945_x_at) / RFU KRTAP5-7 /// NADSYN1 (11734609_at) / Fold change /veh KRTAP5-7 /// NADSYN1 (11734609_at) / RFU RASL12 (11751679_a_at) / Fold change /veh RASL12 (11751679_a_at) / RFU CDKN2B (11736163_a_at) / Fold change /veh CDKN2B (11736163_a_at) / RFU PRF1 (11729649_at) / Fold change /veh PRF1 (11729649_at) / RFU, ZNF638 /// ZNF638-IT1 / Fold change vs veh, ZNF638 /// ZNF638-IT1 / RFU, PANK3 / Fold change vs veh, PANK3 / RFU, SH3YL1 / Fold change vs veh, SH3YL1 / RFU, ZEB2 / Fold change vs veh, ZEB2 / RFU, NRIP1 / Fold change vs veh, NRIP1 / RFU, PTTG1IP / Fold change vs veh, PTTG1IP / RFU, CAPN2 / Fold change vs veh, CAPN2 / RFU, MED14 / Fold change vs veh, MED14 / RFU, SNORA58 / Fold change vs veh, SNORA58 / RFU, C1orf63 / Fold change vs veh, C1orf63 / RFU, LRRFIP1 / Fold change vs veh, LRRFIP1 / RFU, NDUFAF7 / Fold change vs veh, NDUFAF7 / RFU, SLC12A2 / Fold change vs veh, SLC12A2 / RFU, IBTK / Fold change vs veh, IBTK / RFU, ESF1 / Fold change vs veh, ESF1 / Fold change vs veh, TMEM50B / RFU, TAOK1 / Fold change vs veh, TAOK1 / RFU, ACBD3 / Fold change vs veh, ACBD3 / RFU, TMA16 / Fold change vs veh, TMA16 / RFU, RWDD3 / Fold change vs veh, RWDD3 / RFU, BCAT1 / Fold change vs veh, BCAT1 / RFU, EDEM3 / Fold change vs veh, EDEM3 / RFU, TMEM33 / Fold change vs veh, TMEM33 / RFU, WDR75 / Fold change vs veh, WDR75 / RFU, AHCTF1 / Fold change vs veh, AHCTF1 / RFU, TFRC / Fold change vs veh, TFRC / RFU, ZDHHC17 / Fold change vs veh, ZDHHC17 / RFU, NOM1 / Fold change vs veh, NOM1 / RFU, ARL8B / Fold change vs veh, ARL8B / RFU, ZBTB11 / Fold change vs veh, ZBTB11 / RFU, TAMM41 / Fold change vs veh, TAMM41 / RFU, KIAA1704 /// LOC100996395 / Fold change vs veh, KIAA1704 /// LOC100996395 / RFU, ING1 / Fold change vs veh, ING1 / RFU, TRMT61B / Fold change vs veh, TRMT61B / RFU, FUBP3 / Fold change vs veh, FUBP3 / RFU, TP53 / Fold change vs veh, TP53 / RFU, TNKS2 / Fold change vs veh, TNKS2 / RFU, ZFP14 / Fold change vs veh, ZFP14 / RFU, ACTR2 / Fold change vs veh, ACTR2 / RFU, PPP3R1 / Fold change vs veh, PPP3R1 / RFU, PIK3R1 / Fold change vs veh, PIK3R1 / RFU, HNRNPA1 / Fold change vs veh, HNRNPA1 / RFU, RNF170 / Fold change vs veh, RNF170 / RFU, ZNF28 / Fold change vs veh, ZNF28 / RFU, RNGTT / Fold change vs veh, RNGTT / RFU, OGT / Fold change vs veh, OGT / RFU, BRD1 / Fold change vs veh, BRD1 / RFU, MARS / Fold change vs veh, MARS / RFU, ZNF655 / Fold change vs veh, ZNF655 / RFU, FAHD1 / Fold change vs veh, FAHD1 / RFU, BDP1 / Fold change vs veh, BDP1 / RFU, LRRCC1 / Fold change vs veh, LRRCC1 / RFU, ARID1A / Fold change vs veh, ARID1A / RFU, ZNF146 / Fold change vs veh, ZNF146 / RFU, ZNF330 / Fold change vs veh, ZNF330 / RFU, GPN3 / Fold change vs veh, GPN3 / RFU, C9orf123 / Fold change vs veh, C9orf123 / RFU, N4BP2L2 / Fold change vs veh, N4BP2L2 / RFU, ARFIP1 / Fold change vs veh, ARFIP1 / RFU, FAM179B / Fold change vs veh, FAM179B / RFU, BCL10 / Fold change vs veh, BCL10 / RFU, UHRF1BP1L / Fold change vs veh, UHRF1BP1L / RFU, BET1 / Fold change vs veh, BET1 / RFU, CNOT2 / Fold change vs veh, CNOT2 / RFU, ZNF268 / Fold change vs veh, ZNF268 / Fold change vs veh, ZNF507 / RFU, DGCR2 / Fold change vs veh, DGCR2 / RFU, WDSUB1 / Fold change vs veh, WDSUB1 / Fold change vs veh, HSP90B1 /// MIR3652 / RFU, ADSS / Fold change vs veh, ADSS / RFU, GK / Fold change vs veh, GK / RFU, ZNF148 / Fold change vs veh, ZNF148 / RFU, TAF9 / Fold change vs veh, TAF9 / RFU, SLC1A5 / Fold change vs veh, SLC1A5 / RFU, SLMO2 / Fold change vs veh, SLMO2 / RFU, ABCC4 / Fold change vs veh, ABCC4 / RFU, LOC101060439 /// RAP1B / Fold change vs veh, LOC101060439 /// RAP1B / RFU, RFX7 / Fold change vs veh, RFX7 / RFU, GTPBP10 / Fold change vs veh, GTPBP10 / RFU, CNEP1R1 / Fold change vs veh, CNEP1R1 / RFU, BIVM-ERCC5 /// ERCC5 / Fold change vs veh, BIVM-ERCC5 /// ERCC5 / RFU, ILF3 / Fold change vs veh, ILF3 / RFU 11762660_at / Fold change /veh 11762660_at / RFU VCAN (11757783_s_at) / Fold change /veh VCAN (11757783_s_at) / RFU DDX43 (11728927_at) / Fold change /veh DDX43 (11728927_at) / RFU KRT8 (11758188_x_at) / Fold change /veh KRT8 (11758188_x_at) / RFU NKD1 (11759106_at) / Fold change /veh NKD1 (11759106_at) / RFU SRD5A1 (11742802_a_at) / Fold change /veh SRD5A1 (11742802_a_at) / RFU TPSAB1 /// TPSB2 (11721975_s_at) / Fold change /veh TPSAB1 /// TPSB2 (11721975_s_at) / RFU GSTM3 (11746129_a_at) / Fold change /veh GSTM3 (11746129_a_at) / RFU IL23R (11737362_x_at) / Fold change /veh IL23R (11737362_x_at) / RFU TMEM51 (11727254_a_at) / Fold change /veh TMEM51 (11727254_a_at) / RFU PIWIL2 (11732686_x_at) / Fold change /veh PIWIL2 (11732686_x_at) / RFU ORM1 (11744905_x_at) / Fold change /veh ORM1 (11744905_x_at) / RFU CCDC152 (11743942_at) / Fold change /veh CCDC152 (11743942_at) / RFU ECM1 (11717891_a_at) / Fold change /veh ECM1 (11717891_a_at) / RFU IL23R (11748794_a_at) / Fold change /veh IL23R (11748794_a_at) / RFU TNFAIP8L3 (11732012_x_at) / Fold change /veh TNFAIP8L3 (11732012_x_at) / RFU MBOAT4 (11741988_at) / Fold change /veh MBOAT4 (11741988_at) / RFU 11764193_at / Fold change /veh 11764193_at / RFU TMEM53 (11763286_at) / Fold change /veh TMEM53 (11763286_at) / RFU MAGEB2 (11727129_at) / Fold change /veh MAGEB2 (11727129_at) / RFU TMEM200A (11744735_a_at) / Fold change /veh TMEM200A (11744735_a_at) / RFU CCDC152 (11751479_a_at) / Fold change /veh CCDC152 (11751479_a_at) / RFU FAM211A (11726209_a_at) / Fold change /veh FAM211A (11726209_a_at) / RFU RGS16 (11746705_a_at) / Fold change /veh RGS16 (11746705_a_at) / RFU VCAN (11755009_s_at) / Fold change /veh VCAN (11755009_s_at) / RFU RHOB (11743442_s_at) / Fold change /veh RHOB (11743442_s_at) / RFU RGS16 (11720943_a_at) / Fold change /veh RGS16 (11720943_a_at) / RFU RGS16 (11720944_at) / Fold change /veh RGS16 (11720944_at) / RFU, VPS4B / Fold change vs veh, VPS4B / RFU, CREB1 / Fold change vs veh, CREB1 / RFU, DNAJC13 / Fold change vs veh, DNAJC13 / RFU, GNAQ / Fold change vs veh, GNAQ / RFU, CDK5R1 / Fold change vs veh, CDK5R1 / RFU, ZRANB3 / Fold change vs veh, ZRANB3 / RFU, CUL4A / Fold change vs veh, CUL4A / RFU, CCNY / Fold change vs veh, CCNY / RFU, UFL1 / Fold change vs veh, UFL1 / RFU, COG3 / Fold change vs veh, COG3 / RFU, DIAPH2 / Fold change vs veh, DIAPH2 / RFU, SKA2 / Fold change vs veh, SKA2 / RFU, AFF3 / Fold change vs veh, AFF3 / RFU, LMF1 / Fold change vs veh, LMF1 / RFU, IPO11 / Fold change vs veh, IPO11 / RFU, DFFB / Fold change vs veh, DFFB / RFU, FOXP1 / Fold change vs veh, FOXP1 / RFU, CARD8 / Fold change vs veh, CARD8 / RFU, STRN3 / Fold change vs veh, STRN3 / RFU, ADK / Fold change vs veh, ADK / RFU, RASSF2 / Fold change vs veh, RASSF2 / RFU, WIPF1 / Fold change vs veh, WIPF1 / RFU, LARP1B / Fold change vs veh, LARP1B / RFU, RASA1 / Fold change vs veh, RASA1 / RFU, RB1 / Fold change vs veh, RB1 / RFU, PPFIA1 / Fold change vs veh, PPFIA1 / RFU, MAT2A / Fold change vs veh, MAT2A / RFU, CCT5 / Fold change vs veh, CCT5 / RFU, WDR92 / Fold change vs veh, WDR92 / RFU, CUX1 / Fold change vs veh, CUX1 / RFU, TTC7A / Fold change vs veh, TTC7A / RFU, TMEM135 / Fold change vs veh, TMEM135 / RFU, DEPTOR / Fold change vs veh, DEPTOR / RFU, CPM / Fold change vs veh, CPM / RFU, DNAJB6 / Fold change vs veh, DNAJB6 / RFU, CACNA2D3 / Fold change vs veh, CACNA2D3 / RFU, DTX4 / Fold change vs veh, DTX4 / RFU, TFCP2 / Fold change vs veh, TFCP2 / RFU, GMCL1 /// GMCL1P1 / Fold change vs veh, GMCL1 /// GMCL1P1 / RFU, AEBP2 / Fold change vs veh, AEBP2 / RFU, SNHG1 /// SNORD22 /// SNORD25 /// SNORD26 /// SNORD27 /// SNORD28 /// SNORD29 /// SNORD31 / Fold change vs veh, SNHG1 /// SNORD22 /// SNORD25 /// SNORD26 /// SNORD27 /// SNORD28 /// SNORD29 /// SNORD31 / Fold change (Aza/veh), C12orf56 (ProbeSet 11735607_a_at) / Fold change (ACY-1035/veh), C12orf56 (ProbeSet 11735607_a_at) / Fold change (Aza/veh), FGFR1OP (ProbeSet 11751329_s_at) / Fold change (ACY-1035/veh), FGFR1OP (ProbeSet 11751329_s_at) / Fold change (Aza/veh), VPS36 (ProbeSet 11739960_a_at) / Fold change (ACY-1035/veh), VPS36 (ProbeSet 11739960_a_at) / RFU SYPL1 (11715823_x_at) / Fold change /veh SYPL1 (11715823_x_at) / RFU IGFBP7 (11715501_s_at) / Fold change /veh IGFBP7 (11715501_s_at) / RFU REEP3 (11722064_at) / Fold change /veh REEP3 (11722064_at) / RFU IGLL1 (11728026_x_at) / Fold change /veh IGLL1 (11728026_x_at): dose or concentration left out as unconfirmed
# Conditions: ProbeSet 11753234_a_at; LIST B
smiles,measurement,value
Nc1ccc(-c2cccs2)cc1NC(=O)c1ccc2c(c1)cc(C1CC1)n2CCN1CCOCC1 [ACY-1035],"RFU, TAMM41",55.35 RFU
